Legend:
[1] = target: T1, PaIPNS (Pseudomonas aeruginosa, UniProt Q9HWJ0); assay: anaerobic UV-visible difference spectroscopy (MLCT); format: binding; conditions: Fe(II) 1 mM, dithionite 2 mM, 25 mM HEPES pH 7.5
T1 construct: gene PA4191; synthetic codon-optimised gene in pET28a, E. coli; N-terminal His6 tag removed by TEV; EDTA-treated apoprotein reconstituted with Fe(II)
T1 sequence (Q9HWJ0 1-334): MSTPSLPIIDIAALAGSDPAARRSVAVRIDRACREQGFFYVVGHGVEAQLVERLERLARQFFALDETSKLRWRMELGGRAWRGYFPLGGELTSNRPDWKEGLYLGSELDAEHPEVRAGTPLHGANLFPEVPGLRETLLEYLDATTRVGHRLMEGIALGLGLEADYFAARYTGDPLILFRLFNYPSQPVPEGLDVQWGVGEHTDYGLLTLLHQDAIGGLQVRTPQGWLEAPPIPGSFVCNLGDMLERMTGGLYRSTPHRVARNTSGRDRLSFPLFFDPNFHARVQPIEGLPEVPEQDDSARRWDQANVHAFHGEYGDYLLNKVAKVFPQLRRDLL

[2] = system: T2, Anc357 (synthetic construct); assay: as above; format: binding; conditions: Fe(II)
T2 construct: pET28a, E. coli; N-terminal His6 tag removed by TEV; 37,413 Da expected after cleavage; monomer

[3] = target: T3, Din11 (Arabidopsis thaliana, UniProt Q8H113); assay: P5C formation, colorimetric assay; format: biochemical; conditions: 2OG 6.67 mM, L-Arg 6.67 mM, Fe(II) 0.4 mM, ascorbate 0.8 mM, HEPES pH 7.5, room temperature
T3 construct: gene 2ODDC23.2; synthetic codon-optimised gene in pET28a, E. coli; N-terminal His6 tag, removed by TEV; Fe(II) added
T3 sequence (Q8H113 1-357): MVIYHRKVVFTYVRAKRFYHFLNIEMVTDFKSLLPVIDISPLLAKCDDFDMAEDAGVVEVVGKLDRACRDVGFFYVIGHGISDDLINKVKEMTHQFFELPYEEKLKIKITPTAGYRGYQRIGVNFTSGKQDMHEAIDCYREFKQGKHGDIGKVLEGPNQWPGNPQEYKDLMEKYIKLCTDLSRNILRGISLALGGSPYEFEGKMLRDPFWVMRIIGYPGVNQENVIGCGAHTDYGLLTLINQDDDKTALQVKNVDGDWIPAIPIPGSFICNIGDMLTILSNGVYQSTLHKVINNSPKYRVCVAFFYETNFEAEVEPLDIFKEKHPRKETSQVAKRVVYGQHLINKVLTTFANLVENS

Row | Compound | anaerobic UV-visible difference spectroscopy (MLCT) [1] | anaerobic UV-visible difference spectroscopy (MLCT) [2] | P5C formation, colorimetric assay [3]
1 | O=C(O)CCC(=O)C(=O)O [2OG] | The PaIPNS spectra clearly demonstrated that PaIPNS binds 2OG | consistent with 2OG binding (Figure S6) | 
2 | N=C(N)NCCC[C@H](N)C(=O)O [L-Arg] |  |  | this enzyme hydroxylated L-Arg to produce P5C
